A value given as a limit tells only on which side of the number the result lay.

The target of the assay is T1, IRAK4 (Homo sapiens, UniProt Q9NWZ3).
T1 construct: 293Tcells expressing HiBiT-tagged IRAK4 were then added into 384-well plates
T1 sequence (Q9NWZ3 1-460): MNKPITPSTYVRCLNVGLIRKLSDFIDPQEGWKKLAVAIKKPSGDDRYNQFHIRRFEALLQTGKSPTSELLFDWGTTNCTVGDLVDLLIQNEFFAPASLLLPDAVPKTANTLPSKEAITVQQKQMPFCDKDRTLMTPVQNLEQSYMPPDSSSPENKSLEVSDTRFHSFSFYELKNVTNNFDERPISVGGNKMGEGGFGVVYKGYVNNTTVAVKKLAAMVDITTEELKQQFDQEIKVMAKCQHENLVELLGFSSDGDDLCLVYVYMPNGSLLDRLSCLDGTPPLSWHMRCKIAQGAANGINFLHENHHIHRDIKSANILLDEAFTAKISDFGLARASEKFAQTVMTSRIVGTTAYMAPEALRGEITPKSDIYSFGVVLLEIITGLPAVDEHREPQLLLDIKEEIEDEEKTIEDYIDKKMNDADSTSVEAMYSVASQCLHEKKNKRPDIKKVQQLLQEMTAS
The assay can be described thus: IRAK4 Degradation Assay, HiBiT Method. It counts as cell-based. To be noted: 293T cells expressing HiBiT-tagged IRAK4, 6 hours. The procedure: Assay 1. IRAK4 Degradation Assay, HiBiT Method
Selected compounds were tested in an IRAK4 degradation assay using the HiBiT Method.
Phenol red-free Dulbecco's modified Eagle medium (DMEM) and fetal bovine serum (FBS) were purchased from Gibco (Grand Island, NY, USA). The Nano-Glo® HiBiT Lytic Assay System was purchased from Promega (Madison, WI, USA). Cell culture flasks and 384-well microplates were acquired from VWR (Radnor, PA, USA). The 293Tcell line was engineered by knocking-in a HiBiT fusion tag into the C-terminal of the IRAK4 gene in 293T cells (Synthego, Redwood City, CA, USA).
IRAK4 degradation was measured via the quantification of luminescent signals using the Nano-Glo® HiBiT Lytic Assay kit. Test compounds were added to 384-well plates in duplicate using an 11-point half-log dilution series, with the highest dose set at […]. 293Tcells expressing HiBiT-tagged IRAK4 were then added into 384-well plates at a cell density of 10,000 cells per well. The plates were kept at 37° C. with 5% CO2 for 6 hours. Cells that were treated only with DMSO served as the negative control; wells that contained only assay media served as the background control. After the 6-hour incubation, Nano-Glo® HiBiT Lytic Assay reagents were added to the cells. Luminescence was acquired using an EnVision™ Multilabel Reader (PerkinElmer, Santa Clara, CA, USA).
Background: With HiBiT, luminescence reflects the tagged protein that the partner subunit can reach.
The DC50 is the concentration at which degradation of the target reaches its halfway point. Lower therefore signals a more potent degrader. For `CC(C)Oc1cc2nc([C@H]3CC[C@H](CN(C)C4CCN(Cc5ccc(NC6CCC(=O)NC6=O)cc5)CC4)CC3)cn2cc1C(=O)Nc1cccc(C(F)(F)F)n1` (some centres unmarked) [Example 8, 2-[4-[[[1-[[4-[(2,6-dioxo-3-piperidyl)amino]phenyl]methyl]-4-piperidyl]-methyl-amino]methyl]cyclohexyl]-7-isopropoxy-N-[6-(trifluoromethyl)-2-pyridyl]imidazo[1,2-a]pyridine-6-carboxamide], the 50% degradation concentration (DC50) was > 1000 nM.

For the compound `CC(C)Oc1cc2nn(C3CCN(C(=O)CN4CCC(c5ccc(C6CCC(=O)NC6=O)cc5)CC4)CC3)cc2cc1C(=O)Nc1cccc(C(F)F)n1` (centres unmarked) [Example 62, N-[6-(difluoromethyl)-2-pyridyl]-2-[1-[2-[4-[4-(2,6-dioxo-3-piperidyl)phenyl]-1-piperidyl]acetyl]-4-piperidyl]-6-isopropoxy-indazole-5-carboxamide], the 50% degradation concentration (DC50) is < 10 nM.

In turn, `CC(C)Oc1cc2nc(C3CCN(C(=O)CC4(O)CCN(c5ccc(NC6CCC(=O)NC6=O)cc5)CC4)CC3)cn2cc1C(=O)Nc1cccc(C(F)(F)F)n1` (centres unmarked) [Example 72, 2-[1-[2-[1-[4-[(2,6-dioxo-3-piperidyl)amino]phenyl]-4-hydroxy-4-piperidyl]acetyl]-4-piperidyl]-7-isopropoxy-N-[6-(trifluoromethyl)-2-pyridyl]imidazo[1,2-a]pyridine-6-carboxamide] registered a DC50 of 10 to 100 nM.

As to `CC(C)Oc1cc2nn([C@H]3CC[C@H](CN4CCN(c5ccn6c(N7CCC(=O)NC7=O)cnc6c5)CC4)CC3)cc2cc1C(=O)Nc1cccn([C@H]2C[C@H]2F)c1=O` [Example 146, 2-((1r,4S)-4-((4-(3-(2,4-dioxotetrahydropyrimidin-1(2H)-yl)imidazo[1,2-a]pyridin-7-yl)piperazin-1-yl)methyl)cyclohexyl)-N-(1-((1S,2R)-2-fluorocyclopropyl)-2-oxo-1,2-dihydropyridin-3-yl)-6-isopropoxy-2H-indazole-5-carboxamide], the half-maximal degradation concentration (DC50) was < 10 nM.

Compound `CC(C)Oc1cc2nc([C@H]3CC[C@H](CN(C)C4CCN(c5ccc(C6CCC(=O)NC6=O)cc5)CC4)CC3)cn2cc1C(=O)Nc1cccc(C(F)(F)F)n1` (some centres unmarked) [Example 13, 2-[4-[[[1-[4-(2,6-dioxo-3-piperidyl)phenyl]-4-piperidyl]-methyl-amino]methyl]cyclohexyl]-7-isopropoxy-N-[6-(trifluoromethyl)-2-pyridyl]imidazo[1,2-a]pyridine-6-carboxamide] yielded a DC50 of 10 to 100 nM.

For `CC(C)Oc1cc2nc([C@H]3CC[C@H](CN4CC5(CCN(c6ncc(N7CCC(=O)NC7=O)cc6F)CC5)C4)CC3)cn2cc1C(=O)Nc1cccn(C2CC2)c1=O` [Example 190], the DC50 lay in the range of 10 to 100 nM.

`CC(C)Oc1cc2nn(C3CCN(C(=O)CC4(O)CCN(c5ccc(NC6CCC(=O)NC6=O)cc5F)CC4)CC3)cc2cc1C(=O)Nc1cccc(C(F)(F)F)n1` (centres unmarked) [Example 59, 2-[1-[2-[1-[4-[(2,6-dioxo-3-piperidyl)amino]-2-fluoro-phenyl]-4-hydroxy-4-piperidyl]acetyl]-4-piperidyl]-6-isopropoxy-N-[6-(trifluoromethyl)-2-pyridyl]indazole-5-carboxamide] had a DC50 of 10 to 100 nM.

In the case of `CC(C)Oc1cc2nn(C3CCN(C(=O)CC4(O)CCN(c5cc(F)c(C6CCC(=O)NC6=O)cc5F)CC4)CC3)cc2cc1C(=O)Nc1cnn2cccnc12` (centres unmarked) [Example 57, 2-(1-(2-(1-(4-(2,6-dioxopiperidin-3-yl)-2,5-difluorophenyl)-4-hydroxypiperidin-4-yl)acetyl)piperidin-4-yl)-6-isopropoxy-N-(pyrazolo[1,5-a]pyrimidin-3-yl)-2H-indazole-5-carboxamide], the DC50 is < 10 nM.

As to `CC(C)Oc1cc2nc([C@H]3CC[C@H](CN4CCC(c5cccc6c5n(C)c(=O)n6C5CCC(=O)NC5=O)CC4)CC3)cn2cc1C(=O)Nc1cccc(C(F)F)n1` (some centres unmarked) [Example 17, N-[6-(difluoromethyl)-2-pyridyl]-2-[4-[[4-[1-(2,6-dioxo-3-piperidyl)-3-methyl-2-oxo-benzimidazol-4-yl]-1-piperidyl]methyl]cyclohexyl]-7-isopropoxy-imidazo[1,2-a]pyridine-6-carboxamide], the 50% degradation concentration (DC50) lay within 10 to 100 nM.

As for `CC(C)Oc1cc2nc(C3CCN(C(=O)CN4CCC(c5cc(F)c(C6CCC(=O)NC6=O)cc5F)CC4)CC3)cn2cc1C(=O)Nc1cnn2cccnc12` (centres unmarked) [Example 77, 2-[1-[2-[4-[4-(2,6-dioxo-3-piperidyl)-2,5-difluoro-phenyl]-1-piperidyl]acetyl]-4-piperidyl]-7-isopropoxy-N-pyrazolo[1,5-a]pyrimidin-3-yl-imidazo[1,2-a]pyridine-6-carboxamide], the DC50 is 10 to 100 nM.

`CC(C)Oc1cc2nc([C@H]3CC[C@H](CN(C)C4CCN(c5ccc(NC6CCC(=O)NC6=O)cc5)CC4)CC3)cn2cc1C(=O)Nc1cccc(C(F)F)n1` (some centres unmarked) [Example 20, N-[6-(difluoromethyl)-2-pyridyl]-2-[4-[[[1-[4-[(2,6-dioxo-3-piperidyl)amino]phenyl]-4-piperidyl]-methyl-amino]methyl]cyclohexyl]-7-isopropoxy-imidazo[1,2-a]pyridine-6-carboxamide] yielded a DC50 of 10 to 100 nM.

Compound `CC(C)Oc1cc2nn(C3CCN(C(=O)CN4CCC(c5ccc(C6CCC(=O)NC6=O)cc5F)CC4)CC3)cc2cc1C(=O)Nc1cccc(C(F)F)n1` (centres unmarked) [Example 63, N-(6-(difluoromethyl)pyridin-2-yl)-2-(1-(2-(4-(4-(2,6-dioxopiperidin-3-yl)-2-fluorophenyl)piperidin-1-yl)acetyl)piperidin-4-yl)-6-isopropoxy-2H-indazole-5-carboxamide] yielded a DC50 of 10 to 100 nM.

On to `CC(C)Oc1cc2nc([C@H]3CC[C@H](CN(C)C4CCN(Cc5ccc6c(c5)n(C)c(=O)n6C5CCC(=O)NC5=O)CC4)CC3)cn2cc1C(=O)Nc1cccc(C(F)F)n1` (some centres unmarked) [Example 43, N-[6-(difluoromethyl)-2-pyridyl]-2-[4-[[[1-[[1-(2,6-dioxo-3-piperidyl)-3-methyl-2-oxo-benzimidazol-5-yl]methyl]-4-piperidyl]-methyl-amino]methyl]cyclohexyl]-7-isopropoxy-imidazo[1,2-a]pyridine-6-carboxamide], for which the DC50 was 10 to 100 nM.

On to `CC(C)Oc1cc2nn([C@H]3CC[C@H](CN4CCN(c5ccc6c(N7CCC(=O)NC7=O)cnn6c5)CC4)CC3)cc2cc1C(=O)Nc1cccn([C@H]2C[C@H]2F)c1=O` [Example 145, 2-((1r,4S)-4-((4-(3-(2,4-dioxotetrahydropyrimidin-1(2H)-yl)pyrazolo[1,5-a]pyridin-6-yl)piperazin-1-yl)methyl)cyclohexyl)-N-(1-((1S,2R)-2-fluorocyclopropyl)-2-oxo-1,2-dihydropyridin-3-yl)-6-isopropoxy-2H-indazole-5-carboxamide], for which the half-maximal degradation concentration (DC50) was < 10 nM.

Compound `CC(C)Oc1cc2nc([C@H]3CC[C@H](CN4CCC(c5ccc6c(c5)n(C)c(=O)n6C5CCC(=O)NC5=O)C(F)(F)C4)CC3)cn2cc1C(=O)Nc1cccn([C@H]2C[C@H]2F)c1=O` (stereo partly drawn) [Example 168, 2-((1r,4S)-4-((4-(1-(2,6-dioxopiperidin-3-yl)-3-methyl-2-oxo-2,3-dihydro-1H-benzo[d]imidazol-5-yl)-3,3-difluoropiperidin-1-yl)methyl)cyclohexyl)-N-(1-((1S,2R)-2-fluorocyclopropyl)-2-oxo-1,2-dihydropyridin-3-yl)-7-isopropoxyimidazo[1,2-a]pyridine-6-carboxamide] showed a half-maximal degradation concentration (DC50) of 10 to 100 nM.

In turn, `CC(C)Oc1cc2nc([C@H]3CC[C@H](CN(C)C4CCN(c5cccc(NC6CCC(=O)NC6=O)c5)CC4)CC3)cn2cc1C(=O)Nc1cccc(C(F)F)n1` (some centres unmarked) [Example 24, N-[6-(difluoromethyl)-2-pyridyl]-2-[4-[[[1-[3-[(2,6-dioxo-3-piperidyl)amino]phenyl]-4-piperidyl]-methyl-amino]methyl]cyclohexyl]-7-isopropoxy-imidazo[1,2-a]pyridine-6-carboxamide] returned a DC50 of 10 to 100 nM.

`CC(C)Oc1cc2nc(C3CCN(CC(=O)N4CCC(c5ccc(NC6CCC(=O)NC6=O)cc5)CC4)CC3)cn2cc1C(=O)Nc1cccc(C(F)(F)F)n1` (centres unmarked) [Example 103, 2-(1-(2-(4-(4-((2,6-dioxopiperidin-3-yl)amino)phenyl)piperidin-1-yl)-2-oxoethyl)piperidin-4-yl)-7-isopropoxy-N-(6-(trifluoromethyl)pyridin-2-yl)imidazo[1,2-a]pyridine-6-carboxamide] had a DC50 of 10 to 100 nM.
